Assay results published in ChEMBL document CHEMBL1201862, “PubChem BioAssay data set” (2004).
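These data come from cells grown in 96-well plates and exposed to compound for 48 hours at five concentrations. GI50 is the concentration that inhibits growth by half.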 Activity calls are given as the source filed them. Rule as the data show it: active = GI50 up to about 1.1 µM and inactive = higher.

How the values were obtained:
Assay in all cases: NCI tumour cell line growth inhibition, 48 h
A498 = test system: A498
COLO 205 = test system: COLO 205
EKVX = test system: EKVX
HCT-15 = test system: HCT-15
HL-60 = test system: HL-60
HT-29 = test system: HT-29
IGROV-1 = test system: IGROV-1
NCI-H460 = test system: NCI-H460
OVCAR-3 = test system: OVCAR-3
SF-268 = test system: SF-268
SF-295 = test system: SF-295
SK-MEL-28 = test system: SK-MEL-28
SK-MEL-2 = test system: SK-MEL-2
SN12C = test system: SN12C
SW-620 = test system: SW-620
U-251 = test system: U-251
A549 = test system: A549
HCC 2998 = test system: HCC 2998
OVCAR-5 = test system: OVCAR-5
MCF7 = test system: MCF7

| SMILES | GI50 (A498) | GI50 (COLO 205) | GI50 (EKVX) | GI50 (HCT-15) | GI50 (HL-60) | GI50 (HT-29) | GI50 (IGROV-1) | GI50 (NCI-H460) | GI50 (OVCAR-3) | GI50 (SF-268) | GI50 (SF-295) | GI50 (SK-MEL-28) | GI50 (SK-MEL-2) | GI50 (SN12C) | GI50 (SW-620) | GI50 (U-251) | GI50 (A549) | GI50 (HCC 2998) | GI50 (OVCAR-5) | GI50 (MCF7) |
| --- | --- | --- | --- | --- | --- | --- | --- | --- | --- | --- | --- | --- | --- | --- | --- | --- | --- | --- | --- | --- |
| COc1ccc(/C(Cl)=C(\CN(C)C)c2ccc(OC)c(OC)c2)cc1OC | > 100 µM (inactive) | > 100 µM (inactive) | > 100 µM (inactive) | > 100 µM | 21.2 µM (inactive) | > 100 µM (inactive) | > 100 µM (inactive) | > 100 µM (inactive) | > 100 µM (inactive) | > 100 µM (inactive) | > 100 µM (inactive) | > 100 µM (inactive) | 55.6 µM (inactive) | > 100 µM (inactive) | > 100 µM (inactive) | > 100 µM (inactive) | – | – | – | – |
| O=C(Nc1ccc(Cl)cc1)c1cc2cc(/N=N/c3ccccc3Cl)ccc2oc1=O | – | 34.1 µM (inactive) | 25.5 µM (inactive) | 2.74 µM | 2.14 µM (inactive) | 15.2 µM (inactive) | 19 µM (inactive) | 26.8 µM (inactive) | 22.2 µM (inactive) | 15.2 µM (inactive) | 28.7 µM (inactive) | 15.9 µM (inactive) | 18.1 µM (inactive) | 18.7 µM (inactive) | 18.1 µM (inactive) | 14.2 µM (inactive) | 29.2 µM (inactive) | 18.9 µM (inactive) | 44.6 µM (inactive) | – |
| O=C(Nc1cccc([N+](=O)[O-])c1)C(=O)C(C(=O)c1ccccc1F)C1OC(=O)C2C=CC=CC21 (centres undefined) | 96.6 µM (inactive) | 35.2 µM (inactive) | 41 µM (inactive) | 27.5 µM | 20 µM (inactive) | 41.6 µM (inactive) | 53.8 µM (inactive) | 40.9 µM (inactive) | – | 19.7 µM (inactive) | 43.9 µM (inactive) | 30.3 µM (inactive) | 30.3 µM (inactive) | 30.1 µM (inactive) | 52.1 µM (inactive) | 22.3 µM (inactive) | 37.5 µM (inactive) | 36.1 µM (inactive) | 81.7 µM (inactive) | – |
| CCOC(=O)C(O)(NC(=O)c1ccccc1F)C(F)(F)F (centres undefined) | – | > 100 µM (inactive) | > 100 µM (inactive) | > 100 µM | > 100 µM (inactive) | > 100 µM (inactive) | 84.5 µM (inactive) | – | > 100 µM (inactive) | > 100 µM (inactive) | > 100 µM (inactive) | > 100 µM (inactive) | > 100 µM (inactive) | > 100 µM (inactive) | > 100 µM (inactive) | > 100 µM (inactive) | > 100 µM (inactive) | > 100 µM (inactive) | > 100 µM (inactive) | > 100 µM (inactive) |
| C=CCCC(On1c(-c2ccc(Cl)cc2)csc1=S)c1ccccc1 (centres undefined) | > 100 µM (inactive) | 22.5 µM (inactive) | 19.9 µM (inactive) | 8.05 µM | 7.18 µM (inactive) | 7.59 µM (inactive) | 20.2 µM (inactive) | – | 23 µM (inactive) | 34 µM (inactive) | 13.9 µM (inactive) | 85.3 µM (inactive) | 14.9 µM (inactive) | 47.3 µM (inactive) | 8.73 µM (inactive) | 21.2 µM (inactive) | 31.2 µM (inactive) | – | > 100 µM (inactive) | 16.7 µM (inactive) |
| CCOC(=O)C1=C(C)NC(=O)N([N+](=O)[O-])C1c1ccccc1C(F)(F)F (centres undefined) | > 100 µM (inactive) | > 100 µM (inactive) | – | 55.2 µM | 55.2 µM (inactive) | 75.2 µM (inactive) | > 100 µM (inactive) | > 100 µM (inactive) | 47.5 µM (inactive) | 53.1 µM (inactive) | 57.7 µM (inactive) | 24.8 µM (inactive) | > 100 µM (inactive) | > 100 µM (inactive) | 52.6 µM (inactive) | 69 µM (inactive) | > 100 µM (inactive) | – | > 100 µM (inactive) | 52.6 µM (inactive) |
| CSc1nc(NC2OCC(OC(C)=O)C(OC(C)=O)C2OC(C)=O)c(/N=C(\C)C(C)=O)c(=O)[nH]1 (centres undefined) | > 100 µM (inactive) | > 100 µM (inactive) | > 100 µM (inactive) | > 100 µM | > 100 µM (inactive) | > 100 µM (inactive) | > 100 µM (inactive) | > 100 µM (inactive) | – | > 100 µM (inactive) | > 100 µM (inactive) | > 100 µM (inactive) | > 100 µM (inactive) | > 100 µM (inactive) | > 100 µM (inactive) | > 100 µM (inactive) | > 100 µM (inactive) | – | > 100 µM (inactive) | – |
| COc1ccc([C@H]2c3cc4c(cc3OC(O)(CO)[C@H]2C(=O)O)OCO4)c(OC)c1.COc1ccc([C@H]2c3cc4c(cc3OC3(O)COC(=O)[C@@H]23)OCO4)c(OC)c1 (some centres undefined) | > 100 µM (inactive) | > 100 µM (inactive) | > 100 µM (inactive) | 37.6 µM | 45.6 µM (inactive) | > 100 µM (inactive) | > 100 µM (inactive) | > 100 µM (inactive) | > 100 µM (inactive) | > 100 µM (inactive) | > 100 µM (inactive) | 35.8 µM (inactive) | > 100 µM (inactive) | > 100 µM (inactive) | > 100 µM (inactive) | 41.9 µM (inactive) | > 100 µM (inactive) | > 100 µM (inactive) | > 100 µM (inactive) | – |
| CC1(C)N=C(/C(Cl)=[N+](/[O-])C(=O)c2ccc(Cl)cc2)C(C)(C)N1O | – | 17 µM (inactive) | > 100 µM (inactive) | 19.8 µM | 18.5 µM (inactive) | 22.1 µM (inactive) | 41 µM (inactive) | 45.5 µM (inactive) | 17.5 µM (inactive) | 29.4 µM (inactive) | 56 µM (inactive) | 18.5 µM (inactive) | 52.7 µM (inactive) | 23.8 µM (inactive) | 20.3 µM (inactive) | 26.4 µM (inactive) | > 100 µM (inactive) | 25.9 µM (inactive) | 23.6 µM (inactive) | 17.3 µM (inactive) |
| O=C(Nc1ccc2[nH]c3c(-c4ccccc4)nccc3c2c1)c1ccccc1[N+](=O)[O-] | 3.24 µM (inactive) | 3.45 µM (inactive) | 3.22 µM (inactive) | 1.53 µM | 3.48 µM (inactive) | 1.85 µM (inactive) | 5.4 µM (inactive) | 3.45 µM (inactive) | – | 3.52 µM (inactive) | 1.64 µM (inactive) | 4.95 µM (inactive) | 4.09 µM (inactive) | 64.6 µM (inactive) | 5.06 µM (inactive) | 2.96 µM (inactive) | 4.88 µM (inactive) | 3.58 µM (inactive) | 2.17 µM (inactive) | – |
| COC(=O)C(C)NP(=O)(N1CC1)N1CC1 (centres undefined) | > 100 µM (inactive) | > 100 µM (inactive) | > 100 µM (inactive) | > 100 µM | 32.7 µM (inactive) | > 100 µM (inactive) | > 100 µM (inactive) | – | – | > 100 µM (inactive) | 92.5 µM (inactive) | > 100 µM (inactive) | > 100 µM (inactive) | 73.6 µM (inactive) | > 100 µM (inactive) | > 100 µM (inactive) | > 100 µM (inactive) | > 100 µM (inactive) | > 100 µM (inactive) | – |
| Cc1ccc(C)c(NC(=O)CCC(=O)CC(=O)C(C)(C)C)c1 | > 100 µM (inactive) | > 100 µM (inactive) | > 100 µM (inactive) | > 100 µM | – | > 100 µM (inactive) | > 100 µM (inactive) | > 100 µM (inactive) | > 100 µM (inactive) | > 100 µM (inactive) | – | > 100 µM (inactive) | > 100 µM (inactive) | > 100 µM (inactive) | > 100 µM (inactive) | > 100 µM (inactive) | > 100 µM (inactive) | > 100 µM (inactive) | > 100 µM (inactive) | – |
| Cc1cccc(C)c1NC(=O)/C(CC(=O)CC(c1ccccc1)c1c(O)c2ccccc2oc1=O)=N/O (centres undefined) | – | > 100 µM (inactive) | > 100 µM (inactive) | > 100 µM | > 100 µM (inactive) | > 100 µM (inactive) | > 100 µM (inactive) | > 100 µM (inactive) | > 100 µM (inactive) | > 100 µM (inactive) | > 100 µM (inactive) | > 100 µM (inactive) | > 100 µM (inactive) | > 100 µM (inactive) | > 100 µM (inactive) | > 100 µM (inactive) | > 100 µM (inactive) | > 100 µM (inactive) | > 100 µM (inactive) | > 100 µM (inactive) |
| CC1(C)N=C(c2ccccc2)SC12S[C@@H]1CCCC[C@H]1S2 | 17.9 µM (inactive) | > 100 µM (inactive) | > 100 µM (inactive) | > 100 µM | > 100 µM (inactive) | 94.6 µM (inactive) | > 100 µM (inactive) | > 100 µM (inactive) | > 100 µM (inactive) | > 100 µM (inactive) | > 100 µM (inactive) | > 100 µM (inactive) | > 100 µM (inactive) | > 100 µM (inactive) | 29.4 µM (inactive) | > 100 µM (inactive) | > 100 µM (inactive) | – | > 100 µM (inactive) | 64.4 µM (inactive) |
| O=S(=O)(C1=CC(S(=O)(=O)c2ccccc2)CN(Cc2ccccc2)C1c1cccc2ccccc12)c1ccccc1 (centres undefined) | > 69 µM (inactive) | – | > 69 µM (inactive) | > 69 µM | > 69 µM (inactive) | > 69 µM (inactive) | > 69 µM (inactive) | > 69 µM (inactive) | > 69 µM (inactive) | > 69 µM (inactive) | > 69 µM (inactive) | > 69 µM (inactive) | > 69 µM (inactive) | > 69 µM (inactive) | > 69 µM (inactive) | > 69 µM (inactive) | > 69 µM (inactive) | > 69 µM (inactive) | > 69 µM (inactive) | – |
